Experimental data reported in patent US10617681B2, “1-arylalkyl-4-acylaminopiperidine compounds” (ARIZONA BOARD OF REGENTS ON BEHALF OF THE UNIVERSITY OF …, priority 2014, dated 2020).

Assays:
CYP1A2 = target: T1, CYP1A2 (Homo sapiens, UniProt P05177); test: CYP inhibition, CYP1A2
T1 sequence (P05177 1-516): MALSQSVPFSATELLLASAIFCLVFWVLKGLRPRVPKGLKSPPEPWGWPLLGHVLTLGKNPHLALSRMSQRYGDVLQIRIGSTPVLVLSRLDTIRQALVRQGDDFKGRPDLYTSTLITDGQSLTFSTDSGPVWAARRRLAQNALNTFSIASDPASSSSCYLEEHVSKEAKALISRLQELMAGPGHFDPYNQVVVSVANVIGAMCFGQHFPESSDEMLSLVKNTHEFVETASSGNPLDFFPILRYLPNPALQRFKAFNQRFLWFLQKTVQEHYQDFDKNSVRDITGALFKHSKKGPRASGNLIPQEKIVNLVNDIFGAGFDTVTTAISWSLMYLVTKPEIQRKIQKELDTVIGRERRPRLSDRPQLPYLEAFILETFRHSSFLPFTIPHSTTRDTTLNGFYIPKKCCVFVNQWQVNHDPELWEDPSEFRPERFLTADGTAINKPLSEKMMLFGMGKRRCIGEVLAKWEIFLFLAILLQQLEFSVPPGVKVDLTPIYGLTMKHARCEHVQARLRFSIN

[1] = In vitro metabolic disposition in human microsomes; type: in vitro ADME; conditions: human pooled liver microsomes, 0-45 minutes
Protocol: (§1) Compound HCV-3 also was subjected to in vitro metabolic disposition in mouse, rat, monkey and human microsomes. The test compound was incubated with pooled liver microsomes, since […] stability in liver microsomes can be predictive of drug stability in vivo. Aliquots were taken at 0, 5, 15, 30 and 45 minutes and quenched immediately. The samples were extracted and analyzed by LC-MS/MS.

κ (KOP) [2] = target: T2, κ (KOP) (Rattus norvegicus, UniProt P34975); test: Cellular functional assay, agonist effect, κ (KOP); type: cell-based; conditions: agonist mode
[3] = In vitro metabolic disposition in monkey microsomes; type: in vitro ADME; conditions: monkey pooled liver microsomes, 0-45 minutes
Protocol: as §1

CYP2D6 = CYP2D6 (Homo sapiens, UniProt P10635); test: CYP inhibition, CYP2D6
κ (KOP) [4] = target: T2, κ (KOP); test: Cellular functional assay, antagonist effect, κ (KOP); type: cell-based
α2B(h) [5] = target: T3, α2B(h) (Homo sapiens, UniProt P18089); test: Cellular functional assay, agonist effect, α2B; type: cell-based
T3 sequence (P18089 1-450): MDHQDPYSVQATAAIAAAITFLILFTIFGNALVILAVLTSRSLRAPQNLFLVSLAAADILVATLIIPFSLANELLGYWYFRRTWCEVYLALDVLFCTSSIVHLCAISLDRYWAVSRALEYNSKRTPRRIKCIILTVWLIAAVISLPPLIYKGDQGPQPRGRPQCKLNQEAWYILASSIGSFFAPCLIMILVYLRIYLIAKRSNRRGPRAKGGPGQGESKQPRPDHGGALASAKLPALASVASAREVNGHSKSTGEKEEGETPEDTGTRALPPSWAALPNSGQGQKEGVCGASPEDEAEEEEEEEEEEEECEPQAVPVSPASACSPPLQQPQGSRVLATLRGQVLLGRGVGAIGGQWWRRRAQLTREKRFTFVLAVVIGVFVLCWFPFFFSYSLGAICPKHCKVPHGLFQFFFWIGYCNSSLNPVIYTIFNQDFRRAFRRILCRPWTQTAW

TA 100 = test: AMES testing, strain TA 100; type: cell-based; conditions: TA 100, up to 1 mg/mL, absence and presence of S9 metabolic activation
Protocol: (§2) Compound HCV-3 was negative for genotoxicity against both strains used in this assay (TA98 and TA 100) up to a maximum tested concentration of 1 mg/mL, in both the absence and presence of S9 metabolic activation. The assay controls behaved as expected.

CYP2C19 = CYP2C19 (Homo sapiens, UniProt P33261); test: CYP inhibition, CYP2C19
CYP2C9 = CYP2C9 (Homo sapiens, UniProt P11712); test: CYP inhibition, CYP2C9
μ (MOP) [6] = target: T4, μ (MOP) (Homo sapiens, UniProt P35372); test: Cellular functional assay, antagonist effect, μ (MOP); type: cell-based; conditions: antagonist mode
μ (MOP) [7] = target: T4, μ (MOP); test: Cellular functional assay, agonist effect, μ (MOP); type: cell-based; conditions: agonist mode
[8] = In vitro metabolic disposition in rat microsomes; type: in vitro ADME; conditions: rat pooled liver microsomes, 0-45 minutes
Protocol: as §1

hERG = hERG (Homo sapiens, UniProt Q12809); test: hERG inhibition; type: cell-based
Protocol: Compound HCV-3 also was tested for hERG inhibition. Over the concentration range tested (up to 25 micromolar) no dose-response was obtained. […] The control compounds behaved as expected in the assay.

CYP3A4 = CYP3A4 (Homo sapiens, UniProt P08684); test: CYP inhibition, CYP3A4; conditions: with either substrate
[9] = In vitro metabolic disposition in mouse microsomes; type: in vitro ADME; conditions: mouse pooled liver microsomes, 0-45 minutes
Protocol: as §1

α2B(h) [10] = target: T3, α2B(h); test: Cellular functional assay, antagonist effect, α2B; type: cell-based; conditions: antagonist mode
P-gp = test: MDCK permeability assay; conditions: dog, MDCK
MDCK = MDCK permeability assay
CYP2B6 = target: T5, CYP2B6 (Homo sapiens, UniProt P20813); test: CYP inhibition, CYP2B6
T5 sequence (P20813 1-491): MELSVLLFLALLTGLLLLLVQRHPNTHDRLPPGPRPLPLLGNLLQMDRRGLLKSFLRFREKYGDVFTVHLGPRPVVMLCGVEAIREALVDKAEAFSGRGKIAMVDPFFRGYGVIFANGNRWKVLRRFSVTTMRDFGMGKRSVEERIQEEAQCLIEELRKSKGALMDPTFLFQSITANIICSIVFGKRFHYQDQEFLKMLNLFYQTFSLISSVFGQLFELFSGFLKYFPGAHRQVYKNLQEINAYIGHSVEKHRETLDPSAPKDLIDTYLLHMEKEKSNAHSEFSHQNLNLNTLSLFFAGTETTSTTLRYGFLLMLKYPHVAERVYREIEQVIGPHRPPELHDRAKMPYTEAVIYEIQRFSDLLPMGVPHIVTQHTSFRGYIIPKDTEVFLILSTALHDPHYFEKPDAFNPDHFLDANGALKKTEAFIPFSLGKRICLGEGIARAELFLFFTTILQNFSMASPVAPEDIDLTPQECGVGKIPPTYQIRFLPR

CYP2C8 = target: T6, CYP2C8 (Homo sapiens, UniProt P10632); test: CYP inhibition, CYP2C8
T6 sequence (P10632 1-490): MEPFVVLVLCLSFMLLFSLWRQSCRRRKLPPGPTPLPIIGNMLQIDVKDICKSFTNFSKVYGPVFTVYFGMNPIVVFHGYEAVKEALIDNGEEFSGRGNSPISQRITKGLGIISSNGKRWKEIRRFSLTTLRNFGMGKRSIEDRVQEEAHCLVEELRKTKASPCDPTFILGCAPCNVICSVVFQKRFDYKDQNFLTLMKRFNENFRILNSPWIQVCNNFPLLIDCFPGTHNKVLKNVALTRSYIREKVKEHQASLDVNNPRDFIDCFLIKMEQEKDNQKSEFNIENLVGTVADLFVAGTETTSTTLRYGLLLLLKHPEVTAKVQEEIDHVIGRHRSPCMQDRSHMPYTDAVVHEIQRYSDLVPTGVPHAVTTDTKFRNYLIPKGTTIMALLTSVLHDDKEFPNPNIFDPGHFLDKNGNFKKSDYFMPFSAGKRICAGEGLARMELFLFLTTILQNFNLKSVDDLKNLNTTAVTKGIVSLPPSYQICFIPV

TA98 = test: AMES testing, strain TA98; type: cell-based; conditions: TA98, up to 1 mg/mL, absence and presence of S9 metabolic activation
Protocol: as §2

hERG, sequence (Q12809 whole entry): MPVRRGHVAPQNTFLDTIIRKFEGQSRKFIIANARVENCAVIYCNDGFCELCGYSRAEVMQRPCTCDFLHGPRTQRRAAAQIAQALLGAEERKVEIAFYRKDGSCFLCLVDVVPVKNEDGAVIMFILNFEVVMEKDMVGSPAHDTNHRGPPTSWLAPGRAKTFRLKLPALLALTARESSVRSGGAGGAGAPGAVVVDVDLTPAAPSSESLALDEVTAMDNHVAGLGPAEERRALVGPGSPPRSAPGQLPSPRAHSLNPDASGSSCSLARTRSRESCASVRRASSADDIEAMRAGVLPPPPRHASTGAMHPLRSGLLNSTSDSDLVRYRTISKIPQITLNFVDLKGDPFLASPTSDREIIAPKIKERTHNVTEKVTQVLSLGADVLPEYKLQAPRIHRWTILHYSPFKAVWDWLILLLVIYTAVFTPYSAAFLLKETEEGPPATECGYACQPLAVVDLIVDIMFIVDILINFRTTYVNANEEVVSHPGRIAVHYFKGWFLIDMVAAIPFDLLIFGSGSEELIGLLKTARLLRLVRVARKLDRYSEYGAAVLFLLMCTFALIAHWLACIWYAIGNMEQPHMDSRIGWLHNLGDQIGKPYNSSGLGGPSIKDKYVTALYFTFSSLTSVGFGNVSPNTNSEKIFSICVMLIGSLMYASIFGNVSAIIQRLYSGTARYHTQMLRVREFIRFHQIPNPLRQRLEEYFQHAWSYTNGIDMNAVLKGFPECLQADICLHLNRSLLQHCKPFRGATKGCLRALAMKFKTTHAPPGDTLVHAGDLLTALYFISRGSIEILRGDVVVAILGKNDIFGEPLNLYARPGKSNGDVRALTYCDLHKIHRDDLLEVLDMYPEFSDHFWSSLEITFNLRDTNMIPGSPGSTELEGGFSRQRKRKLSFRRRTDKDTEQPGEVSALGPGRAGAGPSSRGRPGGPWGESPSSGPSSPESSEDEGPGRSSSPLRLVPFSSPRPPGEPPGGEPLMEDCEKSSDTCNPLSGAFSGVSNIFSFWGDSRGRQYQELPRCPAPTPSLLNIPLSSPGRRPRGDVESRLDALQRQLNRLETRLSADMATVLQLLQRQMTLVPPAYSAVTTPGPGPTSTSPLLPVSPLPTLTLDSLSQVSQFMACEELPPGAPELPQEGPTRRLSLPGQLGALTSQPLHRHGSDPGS
T2 sequence (P34975 whole entry): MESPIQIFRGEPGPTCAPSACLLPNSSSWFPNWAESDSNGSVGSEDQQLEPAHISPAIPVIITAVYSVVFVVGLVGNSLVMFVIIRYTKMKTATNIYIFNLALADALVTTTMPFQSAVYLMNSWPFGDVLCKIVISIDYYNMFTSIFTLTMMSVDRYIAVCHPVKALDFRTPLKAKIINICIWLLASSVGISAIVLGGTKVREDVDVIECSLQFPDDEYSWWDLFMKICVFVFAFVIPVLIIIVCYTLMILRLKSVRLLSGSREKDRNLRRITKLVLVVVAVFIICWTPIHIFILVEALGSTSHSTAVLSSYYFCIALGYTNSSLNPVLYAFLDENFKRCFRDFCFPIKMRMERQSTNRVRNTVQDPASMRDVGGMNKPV
T4 sequence (P35372 whole entry): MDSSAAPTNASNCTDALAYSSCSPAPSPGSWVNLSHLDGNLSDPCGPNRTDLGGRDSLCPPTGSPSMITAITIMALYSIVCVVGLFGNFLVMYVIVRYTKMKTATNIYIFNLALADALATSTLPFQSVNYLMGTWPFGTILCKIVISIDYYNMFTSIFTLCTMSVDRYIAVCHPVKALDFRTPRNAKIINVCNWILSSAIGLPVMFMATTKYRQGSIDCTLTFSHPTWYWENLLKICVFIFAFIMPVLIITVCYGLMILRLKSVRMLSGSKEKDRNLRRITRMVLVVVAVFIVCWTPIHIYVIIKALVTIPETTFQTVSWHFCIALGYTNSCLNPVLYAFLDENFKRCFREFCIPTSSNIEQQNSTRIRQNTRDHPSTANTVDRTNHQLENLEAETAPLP
CYP2D6, sequence (P10635 whole entry): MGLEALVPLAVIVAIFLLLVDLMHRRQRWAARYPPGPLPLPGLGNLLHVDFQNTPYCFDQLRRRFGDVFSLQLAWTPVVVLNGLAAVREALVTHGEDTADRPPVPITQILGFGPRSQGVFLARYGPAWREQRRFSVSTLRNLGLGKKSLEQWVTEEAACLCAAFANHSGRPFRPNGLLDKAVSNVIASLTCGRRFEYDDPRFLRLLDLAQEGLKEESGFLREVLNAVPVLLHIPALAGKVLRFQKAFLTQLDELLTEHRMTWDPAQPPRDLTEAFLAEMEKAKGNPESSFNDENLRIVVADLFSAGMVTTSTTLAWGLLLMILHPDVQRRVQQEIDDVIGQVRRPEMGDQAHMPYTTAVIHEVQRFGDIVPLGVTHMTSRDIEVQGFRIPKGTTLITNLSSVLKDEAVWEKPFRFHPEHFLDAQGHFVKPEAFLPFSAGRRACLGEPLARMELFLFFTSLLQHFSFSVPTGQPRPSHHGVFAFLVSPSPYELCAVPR
CYP2C19, sequence (P33261 whole entry): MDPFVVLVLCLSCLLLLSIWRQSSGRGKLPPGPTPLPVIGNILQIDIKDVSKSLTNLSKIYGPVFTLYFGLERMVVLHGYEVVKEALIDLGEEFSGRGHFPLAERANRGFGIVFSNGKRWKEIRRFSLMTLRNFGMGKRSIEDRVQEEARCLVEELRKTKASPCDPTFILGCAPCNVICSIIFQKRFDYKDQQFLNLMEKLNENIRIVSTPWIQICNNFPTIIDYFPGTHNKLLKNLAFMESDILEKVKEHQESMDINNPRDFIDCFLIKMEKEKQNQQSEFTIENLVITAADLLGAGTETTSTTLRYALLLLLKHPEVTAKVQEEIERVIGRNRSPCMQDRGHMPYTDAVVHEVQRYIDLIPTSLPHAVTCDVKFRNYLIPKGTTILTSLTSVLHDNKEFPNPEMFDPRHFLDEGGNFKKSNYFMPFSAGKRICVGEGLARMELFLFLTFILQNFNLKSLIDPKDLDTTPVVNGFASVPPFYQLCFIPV
CYP2C9, sequence (P11712 whole entry): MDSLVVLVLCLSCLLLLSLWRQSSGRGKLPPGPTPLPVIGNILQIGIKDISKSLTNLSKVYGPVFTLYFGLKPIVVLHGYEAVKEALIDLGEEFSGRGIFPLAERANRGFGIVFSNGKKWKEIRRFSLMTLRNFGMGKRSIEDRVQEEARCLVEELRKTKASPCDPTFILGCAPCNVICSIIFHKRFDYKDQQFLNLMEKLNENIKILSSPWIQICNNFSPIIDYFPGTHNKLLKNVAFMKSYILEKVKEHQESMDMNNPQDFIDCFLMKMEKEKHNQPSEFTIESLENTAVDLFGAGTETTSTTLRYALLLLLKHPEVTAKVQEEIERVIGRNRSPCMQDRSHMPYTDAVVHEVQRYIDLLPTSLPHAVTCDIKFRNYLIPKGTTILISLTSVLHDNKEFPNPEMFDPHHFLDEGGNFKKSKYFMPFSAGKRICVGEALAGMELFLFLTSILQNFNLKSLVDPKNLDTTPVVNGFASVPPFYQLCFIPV
CYP3A4, sequence (P08684 whole entry): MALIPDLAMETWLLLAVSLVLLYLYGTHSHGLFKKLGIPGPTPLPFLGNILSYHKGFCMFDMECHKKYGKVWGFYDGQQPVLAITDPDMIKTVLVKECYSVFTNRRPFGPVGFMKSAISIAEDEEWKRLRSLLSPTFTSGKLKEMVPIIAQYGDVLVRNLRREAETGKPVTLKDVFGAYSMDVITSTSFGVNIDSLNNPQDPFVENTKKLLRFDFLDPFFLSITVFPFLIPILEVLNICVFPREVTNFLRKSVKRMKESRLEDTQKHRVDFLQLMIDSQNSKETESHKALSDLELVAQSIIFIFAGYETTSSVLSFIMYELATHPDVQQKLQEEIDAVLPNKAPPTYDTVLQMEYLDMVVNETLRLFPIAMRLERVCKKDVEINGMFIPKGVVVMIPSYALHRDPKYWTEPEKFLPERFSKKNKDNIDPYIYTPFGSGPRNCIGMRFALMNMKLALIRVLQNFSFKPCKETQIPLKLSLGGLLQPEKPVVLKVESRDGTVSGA

CCC(=O)NC1CCN(CCc2ccccc2)CC1 [HCV-3, N-(1-phenethylpiperidin-4-yl)propionamide]
CYP1A2 inhibition (CYP1A2): No inhibition
clearance [1]: low clearance
% of Control Agonist Response, 1st (κ (KOP) [2]; 1.0E−05, first replicate): −10.3%
% of Control Agonist Response, Mean (κ (KOP) [2]; 1.0E−05, mean): −4.2%
% of Control Agonist Response, 2nd (κ (KOP) [2]; 1.0E−05, second replicate): 1.8%
% of Control Agonist Response (κ (KOP) [2]; test concentration 1.0E−05): −4.2%
clearance [3]: low clearance
CYP2D6 inhibitor category (CYP2D6): moderate CYP2D6 inhibitor
IC50 (CYP2D6): 4200 nM
Agonist Response (% of Control), 1st (κ (KOP) [4]; antagonist mode, 1.0E−05, first replicate): 112.4 % of Control
Agonist Response (% of Control), Mean (κ (KOP) [4]; antagonist mode, 1.0E−05, mean): 94.4 % of Control
Agonist Response (% of Control), 2nd (κ (KOP) [4]; antagonist mode, 1.0E−05, second replicate): 76.5 % of Control
% Inhibition of Control Agonist Response (κ (KOP) [4]; antagonist mode, test concentration 1.0E−05): 6%
% of Control Agonist Response, 1st (α2B(h) [5]; agonist mode, 1.0E−05, first replicate): 9.2%
% of Control Agonist Response, Mean (α2B(h) [5]; agonist mode, 1.0E−05, mean): 7.1%
% of Control Agonist Response, 2nd (α2B(h) [5]; agonist mode, 1.0E−05, second replicate): 5.1%
% of Control Agonist Response (α2B(h) [5]; agonist mode, test concentration 1.0E−05): 7.1%
genotoxicity (TA 100): negative
CYP2C19 inhibitor category (CYP2C19): weak CYP2C19 inhibitor
inhibition at 25 micromolar (CYP2C19): 36.4%
CYP2C9 inhibition (CYP2C9): No inhibition
Agonist Response (% of Control), 1st (μ (MOP) [6]; 1.0E−05, first replicate): 100.1 % of Control
Agonist Response (% of Control), Mean (μ (MOP) [6]; 1.0E−05, mean): 101.0 % of Control
Agonist Response (% of Control), 2nd (μ (MOP) [6]; 1.0E−05, second replicate): 101.8 % of Control
% Inhibition of Control Agonist Response (μ (MOP) [6]; test concentration 1.0E−05): −1%
% of Control Agonist Response, 1st (μ (MOP) [7]; 1.0E−05, first replicate): 28.1%
% of Control Agonist Response, Mean (μ (MOP) [7]; 1.0E−05, mean): 33.5%
% of Control Agonist Response, 2nd (μ (MOP) [7]; 1.0E−05, second replicate): 38.9%
% of Control Agonist Response (μ (MOP) [7]; test concentration 1.0E−05): 33.5%
clearance [8]: moderate clearance
hERG inhibition category (hERG): weak or no hERG inhibition
IC50 (hERG; concentration range tested up to 25 micromolar): > 25000 nM
inhibition at 25 micromolar (hERG; human, at the top concentration of 25 micromolar): 32.5%
CYP3A4 inhibition (CYP3A4): No inhibition
clearance [9]: low clearance
Agonist Response (% of Control), 1st (α2B(h) [10]; 1.0E−05, first replicate): 116.8 % of Control
Agonist Response (% of Control), Mean (α2B(h) [10]; 1.0E−05, mean): 127.8 % of Control
Agonist Response (% of Control), 2nd (α2B(h) [10]; 1.0E−05, second replicate): 138.7 % of Control
% Inhibition of Control Agonist Response (α2B(h) [10]; test concentration 1.0E−05): −28%
efflux ratio (P-gp): 1.48
permeability (MDCK; MDCK assay): highly permeable
CYP2B6 inhibition (CYP2B6): No inhibition
CYP2C8 inhibition (CYP2C8): No inhibition
genotoxicity (TA98): negative

Cc1cccc([C@H](C)c2c[nH]cn2)c1C [dexmedetc, reference compound]
EC50 (α2B(h) [5]; reference agonist, read-out: Reference EC50 Ref): 13 nM

Oc1ccc2c3c1O[C@H]1c4[nH]c5c(c4C[C@@]4(O)[C@@H](C2)N(CC2CC2)CC[C@]314)C[C@@]1(O)[C@H]2Cc3ccc(O)c4c3[C@@]1(CCN2CC1CC1)[C@H]5O4 [nor-BNI, reference compound]
Kb (κ (KOP) [4]; reference antagonist, read-out: Reference Kb Ref): 0.072 nM

COc1cc2nc(N3CCN(C(=O)c4ccco4)CC3)nc(N)c2cc1OC [prazosin, reference compound]
efflux (control compound) (MDCK; in the absence of Cyclosporin A): showing efflux
efflux (control compound) (MDCK; in the presence of Cyclosporin A): inhibited
